This note sets out measurements from ChEMBL document CHEMBL1132875, “Bicyclic pyridones as potent, efficacious and orally bioavailable thrombin inhibitors” (Bioorg Med Chem Lett, 2000).

Data set [1] in a line: The compound was tested in vitro for its anticoagulant potency (2x APTT) of human plasma. The class given is functional.
A further data set addresses Serine protease 1 (Homo sapiens, UniProt P07477). The experiment in a line: The compound was tested for its ability to inhibit trypsin.
A further data set has as its target Prothrombin (Homo sapiens, UniProt P00734). The experiment in a line: The compound was tested for its ability to inhibit thrombin.
In data set [2] the test system is Rattus norvegicus. The experiment in a line: Compound was tested in vivo for its antithrombotic efficacy in six rats upon intravenous administration of 3 ug/kg/min dose and activity expressed as number of occlusions. In kind it is functional.
In data set [3] the test system is Rattus norvegicus. The data set is described as follows: Final plasma concentration when 3 ug/kg/min compound administered intravenously in rat. The class given is ADME, organism-based. Conditions: in vivo, iv, 0.003 mg/kg.
The nature of data set [4]: (§1) Half life was determined after oral administration at 1 mg/kg in dogs. Also on record: dose 1 mg/kg, route oral. Particulars: dog, in vivo. In kind it is ADME, organism-based, Canis lupus familiaris.
The nature of data set [5]: Cmax in dog plasma after 1mg/kg oral dose. The class given is ADME, organism-based, Canis lupus familiaris. Details: dose 1 mg/kg, route oral.
The nature of data set [6]: Maximum time taken for oral absorption was determined after oral administration at 1 mg/kg in dogs. Details: dose 1 mg/kg, route oral. The class given is ADME, organism-based, Canis lupus familiaris. Particulars: dog, in vivo.
The nature of data set [7]: Oral absorption kinetics (AUC) was determined after administration of compound orally at 1 mg/kg in dogs. Details: dose 1 mg/kg, route oral. In kind it is ADME, organism-based, Canis lupus familiaris. Conditions: dog, in vivo.
For data set [8], the system named is Rattus norvegicus. The data set is described as follows: Compound was tested in vivo for its antithrombotic efficacy in six rats upon intravenous administration of 10 ug/kg/min dose and activity expressed as number of occlusions. The class given is functional.
The test system of data set [9] is Rattus norvegicus. The experiment in a line: Final plasma concentration when 10 ug/kg/min compound administered intravenously in rat. The class given is ADME, organism-based. Particulars: in vivo, iv, 0.01 mg/kg.
In data set [10] the test system is Rattus norvegicus. The experiment in a line: Compound was tested in vivo for its antithrombotic efficacy in six rats upon intravenous administration of 10 ug/kg/min dose and activity expressed as number of occlusions.
The test system of the next data set is Canis familiaris. The data set is described as §1. Conditions: dog, in vivo. In kind it is ADME, organism-based, Canis lupus familiaris. Also on record: dose 1 mg/kg, route oral.

Serine protease 1, sequence (P07477 whole entry): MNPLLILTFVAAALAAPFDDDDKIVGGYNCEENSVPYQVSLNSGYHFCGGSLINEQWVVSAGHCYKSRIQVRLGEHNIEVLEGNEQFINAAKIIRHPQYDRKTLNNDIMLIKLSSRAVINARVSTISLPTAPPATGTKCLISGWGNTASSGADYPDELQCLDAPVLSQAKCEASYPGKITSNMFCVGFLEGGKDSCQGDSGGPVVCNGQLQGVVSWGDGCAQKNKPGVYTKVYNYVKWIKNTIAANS

`Cc1nc(N)ccc1CNC(=O)Cn1c(C)cc2c(c1=O)NC(=O)C(CC(C)C)(CC(C)C)C2`: the “Concentration doubling APTT” value in data set [1] is listed as 390 nM.
The term Ki denotes the dissociation constant of the complex between target and ligand, obtained from inhibition or displacement. A lower Ki goes with a stronger hold on the target. Take `Cc1nc(N)ccc1CNC(=O)Cn1c(C)cc2c(c1=O)NC(=O)[C@H](Cc1ccccc1)C2`: at Serine protease 1, the Ki worked out at 12700 nM. Further, the “Concentration doubling APTT” value in [1] was found to be 200 nM.
Regarding `CC[C@@H]1Cc2cc(C)n(CC(=O)NCc3ccc(N)nc3C)c(=O)c2NC1=O`, the results for the Ki on Serine protease 1 and at Prothrombin were 4200 nM and 1.6 nM, respectively. Also, the “Concentration doubling APTT” value in data set [1] is 310 nM.
With `Cc1nc(N)ccc1CNC(=O)Cn1c(C)cc2c(c1=O)NC(=O)[C@H](CC1CC1)C2`, the Ki on Serine protease 1 came to 770 nM; at Prothrombin it was 0.21 nM. In the data set with Rattus norvegicus [2], the Activity is recorded as 1. For the same compound, the “Concentration doubling APTT” value in [1] is 150 nM. The compound further returned a concentration in the data set with Rattus norvegicus [3] of 185 nM.
Turning to `CCC[C@@H]1Cc2cc(C)n(CC(=O)NCc3ccc(N)nc3C)c(=O)c2NC1=O`, the figures for the inhibition constant Ki on Serine protease 1 and at Prothrombin were 510 nM and 0.33 nM, respectively. Besides, the “Concentration doubling APTT” value in data set [1] is 180 nM.
The term half-life denotes the time needed for the level to fall by half in the phase considered. A word on the Cmax: it is the maximum level reached in the sampled fluid or tissue. In general, Tmax refers to the time from dosing to the highest level. What is called AUC is the area under the concentration-time curve, a measure of exposure. High values mean high exposure, low ones low exposure. On to `Cc1nc(N)ccc1CNC(=O)Cn1c(C)cc2c(c1=O)NC(=O)[C@](C)(CC(C)C)C2`, for which the half-life in data set [4] is 1.5 h. In data set [5], the maximum concentration (Cmax) amounted to 1370 nM. Besides, the Ki at Serine protease 1 turned out to be 860 nM. Also, the “Concentration doubling APTT” value in data set [1] was determined as 160 nM. Moreover, the Tmax in data set [6] was 0.5 h. This compound had an area under the curve (AUC) in data set [7] of 2.97 µM·h.
Turning to `Cc1nc(N)ccc1CNC(=O)Cn1c(C)cc2c(c1=O)NC(=O)CC2`, at Serine protease 1, the affinity, expressed as Ki, was 101000 nM.
In the data set on Rattus norvegicus [8], `Cc1nc(N)ccc1CNC(=O)Cn1c(C)cc2c(c1=O)NC(=O)[C@H](CC1CCC1)C2` came in with an Activity of 0. This compound displayed a Ki on Serine protease 1 of 420 nM. In addition, in [1], the “Concentration doubling APTT” value was found to be 190 nM. This compound also had a concentration with Rattus norvegicus [9] of 596 nM.
For the compound `CCC[C@H]1Cc2cc(C)n(CC(=O)NCc3ccc(N)nc3C)c(=O)c2NC1=O`, the values for the inhibitory constant (Ki) at Serine protease 1 and on Prothrombin were 22000 nM and 36 nM, respectively.
On to `Cc1nc(N)ccc1CNC(=O)Cn1c(C)cc2c(c1=O)NC(=O)[C@H](CC(C)C)C2`, for which, in data set [4], the half-life amounted to 2.35 h. Also, the peak concentration (Cmax) in data set [5] was 180 nM. Also, the Activity with Rattus norvegicus [10] is given as 0. Besides, the values for the inhibition constant (Ki) at Serine protease 1 and on Prothrombin were 580 nM and 0.4 nM, respectively. The “Concentration doubling APTT” value in data set [1] is 220 nM. Also, the concentration in the data set on Rattus norvegicus [9] worked out at 255 nM. The time to peak (Tmax) in data set [6] was 1.17 h. For the same compound, in data set [7], the AUC worked out at 0.75 µM·h.
`Cc1nc(N)ccc1CNC(=O)Cn1c(C)ccc(NS(=O)(=O)Cc2ccccc2)c1=O` [L-374087] gave a T1/2 in the data set with Canis familiaris of 2.57 h. This compound also gave an AUC in data set [7] of 4.42 µM·h.
